Results as given in patent publication US20130039852A1, “METHODS OF TARGETING CELLS FOR DIAGNOSIS AND THERAPY” (NORTHEASTERN UNIVERSITY, priority 2008, published 2013).
≈ marks a conversion by molar mass, not a printed value.

Experiments:
[1] = test system: H9C2 embryonic rat cardiocytes; assay: IC50 in H9C2 embryonic cardiocytes, Trypan Blue exclusion; type: cell-based; settings: 24 hr
Method: H9C2 embryonic rat cardiocytes cultured in 10% Fetal Clone DMEM (F-DMEM) at 37° C. in 25 ml sterile culture flasks until 90% confluent in triplicate were dissociated by Trypsin digestion. The cells were washed in F-DMEM. Aliquots of 40,000 H9C2 cells in 1 ml F-DMEM were delivered to each well of a 6 well culture plate. After incubation for 24 hr, the culture medium was removed and fresh medium containing 2.5 μg/ml, 5 μg/ml, 10 μg/ml, 15 μg/ml, and 30 μg/ml of Dox-DPG or free Dox were added and incubated at 37° C. for 24 hr. Cell death was assessed by Trypan Blue exclusion test.

[2] = test system: PC-3 cancer cells; assay: In vitro therapeutic efficacy in PC-3 cell cultures; type: cell-based, human; settings: 10 μg Bom-BiSpCx 24 hr then 10 μg/ml Dox-DPG, or 10 μg/ml free Dox; Trypan blue
Method: PC-3 cancer cells were grown in 10% fetal clone-DMEM until they reached about 80% confluence. The cells were then harvested by trypsin digestion and re-plated in 6 well culture plates at 40,000 cells per well. After attaining 70% confluency, the medium was replaced with or without 10 μg of Bom-BiSpCx (prepared as described in Example 3) in triplicates to quadruplicates. After 24 hr of incubation at 37° C. in 5% CO2, the media was changed to media containing 10 μg/ml of free Dox or Dox-DPG (prepared as described in Example 2). The cells were further incubated at 37° C. for 0-3 hr, 3-12 hr, or 12-24 hr, at which time the cells in each well were collected and the number of live and dead cells determined by Trypan blue exclusion test in a Hemocytometer. Negative control cells were treated with monospecific 2C5 antibody, […] antibody, Bombesin, or culture media alone. Positive control cells were treated with 10 μg/ml of free Dox. Each assay was repeated at least 3 times in triplicate or quadruplicate.

[3] = test system: BT-20 human mammary tumor cells; assay: In vitro assay for tumorotoxicity in BT-20 human mammary tumor cells; type: cell-based; settings: BT-20 cells, 10 μg/ml, 3 hrs; compared with Dox-DPG and Dox-DPG-BiSpAb
Method: BT-20 human mammary tumor cells were grown in 10% Fetal Clone DEME. When the cells reached about 80% confluence, the cells were harvested by trypsin digestion and replated in […] culture plates at 400,000 cells per well. After 24 hrs, the culture media was removed and in one set of wells was replaced with media containing 10 μg/ml of 2C5-6C31H3 BiSpAb (prepared as described in Example 1). In two other sets, the media was replaced with media lacking 2C5-6C31H3 BiSpAb. Each set was prepared in triplicate. After 24 hrs of incubation, the medium was removed and washed 3× with medium lacking antibody. Medium containing 10 μg/ml of free Dox was then added to a medium-only set of wells, and media containing 10 μg/ml of Dox-DPG was added to one set with and one set without 2C5-6C31H3 BiSpAb. The cultures were incubated for either 3 hrs, 12 hrs, or 24 hrs, at which times the cells in the media were collected and viability was determined by counting cells with Tryptan Blue exclusion criteria in a hemocytometer.

[4] = test system: anti-Bombesin antibody; assay: ELISA for bispecificity using anti-Bombesin capture antibody and DTPA-HRP; type: binding; settings: 1 μg/ml, captured by anti-Bombesin antibody
Method: Intact 6C31H3 anti-DTPA antibody was modified with 100× molar excess iminothiolane. Bombesin was modified with 24× molar excess N-hydroxy-succinimide ester of bromoacetic acid (as described in Varvarigou et al., Can. Biother. Radiopharm. 19:219-229 (2004); and Bernatowicz et al., Anal. Biochem. 155:95-102 (1986)). […] The antibody activity and Bombesin concentrations were assessed by ELISA using either DTPA-BSA or anti-Bombesin antibody and compared to standard curves. Specifically, the Bombesin concentration of serial dilutions of Bom-BiSpCx starting at 1 μg/ml was determined by ELISA using Bombesin (1 μg/ml) and 6C31H3 antibody (1 μg/ml) as controls. Bombesin of the Bom-BiSpCx (1 μg/ml) was captured by an anti-Bombesin antibody, resulting in a positive reaction with DTPA-HRP (which is specific for the […] antibody of the Bom-BiSpCx).

Structure (SMILES) | IC50 (cardiotoxicity) [1] [µg/mL] | Death of PC-3 cancer cells [2] [%] | Tumor cell killing, early stage of incubation [3] | Reaction with DTPA-HRP, O.D. 490 nm [4]
COc1cccc2c1C(=O)c1c(O)c3c(c(O)c1C2=O)C[C@@](O)(C(=O)CO)C[C@@H]3O[C@H]1C[C@H](N)[C@H](O)[C@H](C)O1 [doxorubicin] | 1.02 (≈ 1.88 µM) | 68.6 | more effective in killing tumor cells | –
O=C(O)CN(CCN(CC(=O)O)CC(=O)O)CCN(CC(=O)O)CC(=O)O [DTPA, diethylene triaminepentaacetic acid] | – | – | – | 0.0007±0.0025
